Data reported in patent US6498125B2, “Pyridine ketones useful as herbicides” (Syngenta Participations AG, priority 1998, dated 2002).

Legend:
[1] = tested on: Monocotyledonous and dicotyledonous test plants; test: Example B1: pre-emergence herbicidal action, 2 kg of AS/ha; type: in vivo; settings: 3 weeks, scale 1-9; for pre-emergence action rating, Avena: test plant Avena; for pre-emergence action rating, Cyperus: test plant Cyperus; for pre-emergence action rating, Setaria: test plant Setaria; for pre-emergence action rating, Sinapis: test plant Sinapis; for pre-emergence action rating, Solanum: test plant Solanum; for pre-emergence action rating, Stellaria: test plant Stellaria
Description: Monocotyledonous and dicotyledonous test plants are sown in standard soil in plastic pots. Immediately after sowing, the test substances are sprayed on (500 l of water/ha) as an aqueous suspension (prepared from a 25% wettable powder (Example F3, b) according to WO 97/34485) or emulsion (prepared from a 25% emulsion concentrate (Example F1, c)), corresponding to a dosage of 2 kg of AS/ha. The test plants are then grown under optimum conditions in a greenhouse. After a test period of 3 weeks, the test is evaluated with a nine-level scale of ratings (1=complete damage, 9=no effect). Ratings of 1 to 4 (in particular 1 to 3) mean good to very good herbicidal action.

[2] = tested on: Monocotyledonous and dicotyledonous test plants; test: Example B2: post-emergence herbicidal action, 2 kg of AS/ha; type: in vivo; set-up: key: 1 = complete damage, 9 = no effect; settings: 4- to 6-leaf stage, about 18 days, scale 1-9; for post-emergence action rating, Avena: test plant Avena; for post-emergence action rating, Setaria: test plant Setaria; for post-emergence action rating, Sinapis: test plant Sinapis; for post-emergence action rating, Solanum: test plant Solanum; for post-emergence action rating, Stellaria: test plant Stellaria
Description: Monocotyledonous and dicotyledonous test plants are grown in plastic pots with standard soil in a greenhouse and, in the 4- to 6-leaf stage, are sprayed with an aqueous suspension of the test substances of the formula 1, prepared from a 25% wettable powder (Example F3, b) according to WO 97134485) or with an emulsion of the test substances of the formula I, prepared from a 25% emulsion concentrate (Example F1, c) according to WO 97/34485), corresponding to a dosage of 2 kg of AS/ha (500 l of water/ha). The test plants are then grown further under optimum conditions in a greenhouse. After a test period of about 18 days, the test is evaluated with a nine-level scale of rating (1=complete damage, 9=no effect). Ratings of 1 to 4 (in particular 1 to 3) mean good to very good herbicidal action. In this test, the compounds of the formula I show strong herbicidal action.

## Cc1nc(C(F)(F)F)ccc1C(=O)C1=C(Sc2ccc(Cl)cc2)C2CCC(C2)C1=O (stereo not shown) [Compound 1.412, 4-(4-chlorophenylsulfanyl)-3-(2-methyl-6-trifluoromethylpyridine-3-carbonyl)bicyclo[3.2.1]oct-3-en-2-one]
other
  melting point: 130 to 131 °C

## Cc1nc(C(F)(F)F)ccc1C(=O)c1c([S+](C)[O-])noc1C1CC1 (stereo not shown) [Compound 8.009, (5-cyclopropyl-3-methylsulfinylisoxazol-4-yl)-(2-methyl-6-trifluoromethylpyridin-3-yl)methanone]
other
  melting point: 96 to 97 °C

## Cc1nc(C(F)(F)F)ccc1C(=O)C1=C(N)C2CCC(C2)C1=O (stereo not shown) [Compound 1.399, 4-amino-3-(2-methyl-6-trifluoromethylpyridine-3-carbonyl)bicyclo[3.2.1]oct-3en-2-one]
other
  melting point: 262 to 263 °C

## O=C(C1=C(O)C2CCC(C2)C1=O)c1ccnc(C(F)(F)F)c1 (stereo not shown) [Compound 3.001]
other
  melting point: 95 to 97 °C

## O=C(C1=C(O)C2CCC(C2)C1=O)c1ncc(C(F)(F)F)cc1Cl (stereo not shown) [Compound 2.044]
other
  melting point: 105 to 106 °C

## Cc1nc(C(F)(F)F)ccc1C(=O)C1=C(O)CC(NC(=O)Nc2ccccc2)CC1=O (stereo not shown) [Compound 6.076]
other
  melting point: 195 to 196 °C

## CSc1nc(C(=O)C2=C(O)C3CCC(C3)C2=O)ccc1C(F)(F)F (stereo not shown) [Compound 2.03]
other
  melting point: 107 to 110 °C

## Cc1nc(C(F)(F)F)ccc1C(=O)C1=C(S(=O)(=O)c2ccc(Cl)cc2)C2CCC(C2)C1=O (stereo not shown) [Compound 1.414, 4-(4-chlorobenzenesulfonyl)-3-(2-methyl-6-trifluoromethylpyridine-3-carbonyl)bicyclo[3.2.1]oct-3-en-2-one]
other
  melting point: 166 to 167 °C

## Cc1nc(C(F)(F)F)ccc1C(=O)C1=C(O)C(C)(C)C=C(S(C)(=O)=O)C1=O [Compound 5.084]
other
  melting point: 215 to 216 °C

## Cc1nc(C(F)(F)F)ccc1C(=O)C1=C(O)CC(NC(=O)C(C)C)CC1=O (stereo not shown) [Compound 6.041]
other
  melting point: 186 to 187 °C

## CSc1nccc(C(=O)C2=C(O)C3CCC(C3)C2=O)c1C#N (stereo not shown) [Compound 3.055]
other
  melting point: 108 to 110 °C

## Cc1nc(C(F)(F)F)ccc1C(=O)C1=C(O)CC(NC(=O)NC(C)(C)C)CC1=O (stereo not shown) [Compound 6.111]
other
  melting point: 163 to 164 °C

## Cc1nc(C(F)(F)F)ccc1-c1onc([S+](C)[O-])c1C(=O)C1CC1 (stereo not shown) [Compound 9.009, cyclopropyl-[3-methanesulfinyl-5-(2-methyl-6-trifluoromethylpyridin-3yl)isoxazol4-yl]methanone]
other
  melting point: 112 to 113 °C

## Cc1nc(C(F)(F)C(F)(F)F)ccc1C(=O)C1=C(O)C2CCC(C2)C1=O (stereo not shown) [Compound 1.109]
[1]
  pre-emergence action rating, Avena: 2
  pre-emergence action rating, Cyperus: 2
  pre-emergence action rating, Setaria: 2
  pre-emergence action rating, Sinapis: 2
  pre-emergence action rating, Solanum: 1
  pre-emergence action rating, Stellaria: 3
[2]
  post-emergence action rating, Avena: 2
  post-emergence action rating, Setaria: 2
  post-emergence action rating, Sinapis: 1
  post-emergence action rating, Solanum: 2
  post-emergence action rating, Stellaria: 2

## COc1nc(C(=O)C2=C(O)C3CCC(C3)C2=O)ccc1C(F)(F)F (stereo not shown) [Compound 2.038]
other
  melting point: 111 to 113 °C

## CC(=O)OC1=C(C(=O)c2ccc(C(F)(F)F)nc2C)C(=O)C2CCC1C2 (stereo not shown) [Compound 1.401]
[1]
  pre-emergence action rating, Avena: 2
  pre-emergence action rating, Cyperus: 1
  pre-emergence action rating, Setaria: 1
  pre-emergence action rating, Sinapis: 2
  pre-emergence action rating, Solanum: 1
  pre-emergence action rating, Stellaria: 2
[2]
  post-emergence action rating, Avena: 2
  post-emergence action rating, Setaria: 2
  post-emergence action rating, Sinapis: 2
  post-emergence action rating, Solanum: 2
  post-emergence action rating, Stellaria: 2

## COCc1nc(C(F)(F)F)ccc1C(=O)C1=C(O)C2CCC(C2)C1=O (stereo not shown) [Compound 1.021]
[1]
  pre-emergence action rating, Avena: 4
  pre-emergence action rating, Cyperus: 2
  pre-emergence action rating, Setaria: 1
  pre-emergence action rating, Sinapis: 1
  pre-emergence action rating, Solanum: 1
  pre-emergence action rating, Stellaria: 3
[2]
  post-emergence action rating, Avena: 2
  post-emergence action rating, Setaria: 4
  post-emergence action rating, Sinapis: 1
  post-emergence action rating, Solanum: 2
  post-emergence action rating, Stellaria: 2

## Cc1nc(C(F)(F)F)ccc1C(=O)C1=C(O)C(C)(C)C=C([S+](C)[O-])C1=O (stereo not shown) [Compound 5.083]
other
  melting point: 161 to 162 °C

## Cc1cc(C(=O)C2=C(O)C3CCC(C3)C2=O)c(C)nc1C(F)(F)F (stereo not shown) [Compound 1.313]
[1]
  pre-emergence action rating, Avena: 3
  pre-emergence action rating, Cyperus: 1
  pre-emergence action rating, Setaria: 2
  pre-emergence action rating, Sinapis: 1
  pre-emergence action rating, Solanum: 1
  pre-emergence action rating, Stellaria: 2
[2]
  post-emergence action rating, Avena: 2
  post-emergence action rating, Setaria: 2
  post-emergence action rating, Sinapis: 1
  post-emergence action rating, Solanum: 2
  post-emergence action rating, Stellaria: 2

## Cc1nc(C(F)(F)C(F)(F)C(F)(F)C(F)(F)F)ccc1C(=O)C1=C(O)C2CCC(C2)C1=O (stereo not shown) [Compound 1.411]
[1]
  pre-emergence action rating, Avena: 3
  pre-emergence action rating, Cyperus: 2
  pre-emergence action rating, Setaria: 1
  pre-emergence action rating, Sinapis: 2
  pre-emergence action rating, Solanum: 1
  pre-emergence action rating, Stellaria: 2
[2]
  post-emergence action rating, Avena: 2
  post-emergence action rating, Setaria: 2
  post-emergence action rating, Sinapis: 1
  post-emergence action rating, Solanum: 2
  post-emergence action rating, Stellaria: 2

## Cc1c(C(=O)C2=C(O)C3CCC(C3)C2=O)ccc(C(F)(F)F)[n+]1[O-] (stereo not shown) [Compound 1.06]
[1]
  pre-emergence action rating, Avena: 2
  pre-emergence action rating, Cyperus: 1
  pre-emergence action rating, Setaria: 1
  pre-emergence action rating, Sinapis: 2
  pre-emergence action rating, Solanum: 1
  pre-emergence action rating, Stellaria: 1
[2]
  post-emergence action rating, Avena: 2
  post-emergence action rating, Setaria: 1
  post-emergence action rating, Sinapis: 1
  post-emergence action rating, Solanum: 1
  post-emergence action rating, Stellaria: 2

## Cc1nc(C(F)(F)Cl)ccc1C(=O)C1=C(O)C2CCC(C2)C1=O (stereo not shown) [Compound 1.195]
[1]
  pre-emergence action rating, Avena: 2
  pre-emergence action rating, Cyperus: 1
  pre-emergence action rating, Setaria: 1
  pre-emergence action rating, Sinapis: 1
  pre-emergence action rating, Solanum: 1
  pre-emergence action rating, Stellaria: 2
[2]
  post-emergence action rating, Avena: 2
  post-emergence action rating, Setaria: 2
  post-emergence action rating, Sinapis: 1
  post-emergence action rating, Solanum: 2
  post-emergence action rating, Stellaria: 2

## COCc1nc(C(F)(F)F)ccc1C(=O)C1=C(O)C(C)(C)ON(C)C1=O [Compound 4.021]
[1]
  pre-emergence action rating, Avena: 2
  pre-emergence action rating, Cyperus: 1
  pre-emergence action rating, Setaria: 2
  pre-emergence action rating, Sinapis: 2
  pre-emergence action rating, Solanum: 1
  pre-emergence action rating, Stellaria: 2
[2]
  post-emergence action rating, Avena: 2
  post-emergence action rating, Setaria: 2
  post-emergence action rating, Sinapis: 1
  post-emergence action rating, Solanum: 1
  post-emergence action rating, Stellaria: 2
